Data published in paper PMC5362474 (Oncotarget, 2017).

What was measured:
[1] = test system: A549 cells; test: MTT proliferation assay on A549 cells; format: cell-based; details: Homo sapiens
Description: (§1) MTT assay was then applied at 24 h, 48 h. […] However, all the compounds were active against Bel-7402, HepG2, A549 and HeLa cells to some extent. […] Before we began to design these compounds, we carefully studied these references. […] Hu C T, et al., Wang SY, et al. and Xie B, et al. reported that HepG2 was inhibited by inhibiting c-Met/HGF signaling pathway. […] Further research works on activities are currently under investigation and will be reported in due course. […] Proliferation of cells was evaluated by MTT assay. Cells were inoculated at 1.0 × 10^4 cells/mL with 200 μL in each well of 96-well plate and allowed to adhere to the plates overnight. […] After removal of the medium, cells were treated with 150 μL of DMSO and shaken for 15 min to completely dissolve the formazan crystals. The absorbances at 590 nm of the dissolved solutions were detected using a SpectraMAX190 microplate reader (Molecular Devices, USA).

[2] = test system: HepG2 cells; test: MTT proliferation assay on HepG2 cells; format: cell-based; details: Homo sapiens
Description: as §1

[3] = test system: Bel-7402 cells; test: MTT proliferation assay on Bel-7402 cells; format: cell-based; details: Homo sapiens
Description: as §1

[4] = test system: Hela cells; test: MTT proliferation assay on HeLa cells; format: cell-based; details: Homo sapiens
Description: as §1

[5] = target: T1, recombinant human c-Met residues 974-end (Homo sapiens, UniProt P08581); test: Inhibition of c-Met kinase (TR-FRET); format: biochemical; details: for inhibition at 0.19 µM / inhibition at 0.39 µM / inhibition at 0.78 µM / inhibition at 1.56 µM / inhibition at 3.12 µM / inhibition at 6.25 µM / inhibition at 12.5 µM / inhibition at 25 µM / inhibition at 50 µM / inhibition at 100 µM: read-out: Inhibitory rate on c-Met kinase; for inhibition at 12.5 µM: 12.50 μM; for IC50: TR-FRET, read-out: IC50 against c-Met kinase; for c-Met Inhibition rate (%): concentration not given
T1 construct: recombinant human c-Met residues 974-end; 6His; purchased Millipore
Description: The inhibitions of c-Met kinase were investigated referred to a published literature. The IC50 values were detected using TR-FRET. 50 nM 6 His-tagged recombinant human c-Met residues 974-end (Millipore) was cultured in medium containing 2.5 m mol/L MnCl2, 10 m mol/L MgCl2, 20 m mol/L Tris, 2 m mol/L DTT and 0.01% Tween 20 with 5 m mol/L ATP and 200 n mol/L 5FAM-KKK -[…]-NH2 with 25 μL at room temperature for 60 min. Compounds were made up to 100 μM solutions and were tested with 10 concentration gradients by two times dilutions. Each group was tested for three times Reactions were termined by IMAP stop solution. Plates were incubated for an overnight and analyzed by using AiphaQuest.

T1 sequence (P08581 974-1390 limits assumed): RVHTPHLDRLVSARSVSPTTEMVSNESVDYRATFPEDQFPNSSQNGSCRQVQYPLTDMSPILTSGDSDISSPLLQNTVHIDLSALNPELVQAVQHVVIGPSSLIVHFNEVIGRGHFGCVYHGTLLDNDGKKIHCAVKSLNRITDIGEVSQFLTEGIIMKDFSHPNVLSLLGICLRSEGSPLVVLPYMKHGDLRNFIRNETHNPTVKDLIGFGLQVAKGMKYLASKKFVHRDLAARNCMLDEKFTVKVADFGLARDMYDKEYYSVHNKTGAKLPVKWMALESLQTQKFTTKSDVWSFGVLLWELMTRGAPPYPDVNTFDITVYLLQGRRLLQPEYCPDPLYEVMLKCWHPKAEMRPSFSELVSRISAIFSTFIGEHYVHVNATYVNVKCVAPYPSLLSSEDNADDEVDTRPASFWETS

| IC50 ([1]; 24 h) [µM] | IC50 ([1]; 48 h) [µM] | IC50 ([2]; 24 h) [µM] | IC50 ([2]; 48 h) [µM] | IC50 ([3]; 24 h) [µM] | IC50 ([3]; 48 h) [µM] | IC50 ([4]; 24 h) [µM] | IC50 ([4]; 48 h) [µM] | inhibition at 0.19 µM [5] [%] | inhibition at 0.39 µM [5] [%] | inhibition at 0.78 µM [5] [%] | inhibition at 1.56 µM [5] [%] | inhibition at 3.12 µM [5] [%] | inhibition at 6.25 µM [5] [%] | inhibition at 12.5 µM [5] [%] | inhibition at 25 µM [5] [%] | inhibition at 50 µM [5] [%] | inhibition at 100 µM [5] [%] | IC50 [5] [µM] | c-Met Inhibition rate (%) [5] [%] | SMILES |
| --- | --- | --- | --- | --- | --- | --- | --- | --- | --- | --- | --- | --- | --- | --- | --- | --- | --- | --- | --- | --- |
| 162.2 ± 1.55 | 169 ± 1.74 | 147.7 ± 1.47 | 152 ± 1.71 | 157.3 ± 1.33 | 166.2 ± 1.51 | 149.3 ± 1.33 | 153 ± 1.65 | 26.3 ± 0.37 | 40 ± 0.43 | 47.2 ± 0.57 | 58.5 ± 0.69 | 65 ± 0.74 | 69 ± 0.76 | 74.6 ± 0.81 | 79.3 ± 0.85 | 84.3 ± 0.93 | 86.9 ± 0.97 | 1.06 | 31 | CC(=O)OC1C/C(C)=C/CC/C(C)=C/CC1=C(C)C (centres unmarked) [Compound 3a, (3E,7E)-3,7-dimethyl-10-(propan-2-ylidene)cyclodeca-3,7-dien-1-yl-acetate] |
| 93.48 ± 0.79 | 95.9 ± 0.97 | 74.7 ± 0.99 | 78.85 ± 0.77 | 80.1 ± 1.19 | 77.56 ± 0.77 | 91.25 ± 0.87 | 93.31 ± 0.9 | 31.56 ± 0.27 | 40.88 ± 0.35 | 47.08 ± 0.44 | 59.03 ± 0.57 | 64.22 ± 0.59 | 69 ± 0.74 | 75.5 ± 0.88 | 80.6 ± 0.84 | 85.4 ± 0.96 | 87.7 ± 0.95 | 0.92 | 38 | CC(C)=C1C/C=C(\C)CC/C=C(\C)CC1OC(=O)c1ccc(C(F)(F)F)cc1 (centres unmarked) [Compound 3d, (3E,7E)-3,7-dimethyl-10-(propan-2-ylidene)cyclodeca-3,7-dien-1-yl-4-(trifluoromethyl)benzoate] |
| 177 ± 1.8 | 185 ± 1.99 | 155 ± 1.75 | 161.5 ± 1.32 | 167 ± 1.91 | 166 ± 1.83 | 157.3 ± 1.47 | 163 ± 1.73 | 20 ± 0.27 | 34.9 ± 0.37 | 43.1 ± 0.52 | 55.2 ± 0.61 | 59.88 ± 0.53 | 64.16 ± 0.64 | 69.98 ± 0.59 | 74.21 ± 0.69 | 78.2 ± 0.88 | 81.2 ± 0.94 | 1.77 | 23 | CC(C)=C1C/C=C(\C)CC/C=C(\C)CC1O (centres unmarked) [Compound 2, (3E,7E)-3,7-dimethyl-10-(propan-2-ylidene)cyclodeca-3,7-dienol] |
| 180 ± 2.14 | 177 ± 1.87 | 170 ± 2.07 | 175 ± 1.88 | 173.5 ± 1.53 | 177 ± 1.97 | 160.7 ± 1.54 | 168 ± 1.81 | 23.4 ± 0.33 | 39.1 ± 0.45 | 47 ± 0.55 | 58.8 ± 0.61 | 65.4 ± 0.67 | 69.2 ± 0.77 | 73.7 ± 0.89 | 77.5 ± 0.97 | 82.1 ± 1.21 | 88 ± 1.01 | 1.15 | 27 | CC(C)=C1C/C=C(\C)CC/C=C(\C)CC1=O [Compound 1, germacrone, reference compound] |
| 84.85 ± 0.71 | 81.9 ± 0.88 | 68.2 ± 0.69 | 71.5 ± 0.82 | 75.9 ± 0.96 | 74.2 ± 0.83 | 83.64 ± 0.73 | 83.78 ± 0.76 | 35.6 ± 0.44 | 46.9 ± 0.51 | 54.47 ± 0.47 | 63.4 ± 0.66 | 67.05 ± 0.59 | 72.56 ± 0.67 | 77.8 ± 0.81 | 81.24 ± 0.77 | 86 ± 0.93 | 88.8 ± 1.11 | 0.56 | 56 | CC(C)=C1C/C=C(\C)CC/C=C(\C)CC1OC(=O)c1ccc(C)cc1 (centres unmarked) [Compound 3b, (3E,7E)-3,7-dimethyl-10-(propan-2-ylidene)cyclodeca-3,7-dien-1-yl-4-methylbenzoate] |
| 90.11 ± 0.75 | 88.21 ± 0.81 | 72.48 ± 0.64 | 69.98 ± 0.68 | 75.9 ± 0.81 | 79.2 ± 0.89 | 86.55 ± 0.8 | 88.24 ± 0.84 | 28.28 ± 0.22 | 42.75 ± 0.35 | 48.01 ± 0.39 | 61.4 ± 0.64 | 67.5 ± 0.77 | 70.31 ± 0.59 | 75.7 ± 0.78 | 80 ± 0.91 | 85.3 ± 0.87 | 88.4 ± 0.99 | 0.87 | 41 | CC(C)=C1C/C=C(\C)CC/C=C(\C)CC1OC(=O)/C=C\c1ccccc1 (centres unmarked) [Compound 3e, (Z)-(3E,7E)-3,7-dimethyl-10-(propan-2-ylidene)cyclodeca-3,7-dien-1-yl-3-phenylacrylate] |
| 88.52 ± 0.53 | 87.2 ± 0.94 | 70.2 ± 0.87 | 67.84 ± 0.48 | 75.5 ± 1.05 | 78.55 ± 0.51 | 84.1 ± 0.71 | 82.54 ± 0.64 | 33.8 ± 0.45 | 42.6 ± 0.51 | 48 ± 0.62 | 59.6 ± 0.66 | 64.5 ± 0.73 | 70 ± 0.81 | 73.79 ± 0.69 | 78.9 ± 0.87 | 83.7 ± 0.95 | 87.4 ± 1.2 | 0.83 | 47 | CC(C)=C1C/C=C(\C)CC/C=C(\C)CC1OC(=O)c1cccc(C)c1 (centres unmarked) [Compound 3c, (3E,7E)-3,7-dimethyl-10-(propan-2-ylidene)cyclodeca-3,7-dien-1-yl-3-methylbenzoate] |
